Laboratory results taken from patent publication US8192962B2, “Processes for detecting toxic substances” (Daikin Industries, Ltd., priority 2001, dated 2012).

Test system: Metabolism protein genes
Assay: DNA chip mRNA expression in yeast, metabolism protein genes (Table 7)
Format: cell-based, Saccharomyces cerevisiae S288C
Method: Yeast (Saccharomyces cerevisiae S288C (α SUC2mal mel gap2 CUP1)) were incubated at 25° C. on YPD medium (yeast extract 1%, polypepton 2%, glucose 2%). One of toxic chemical substances was added to the cells at logarithmic growth phase, and the cells were further incubated for two hours. Cells were cultured without any chemical substance in the same condition, and were used as control. Concentrations of the chemical substances were defined to inhibit the growth of the yeast but not lead to death.
After completion of the incubation, the culture was centrifuged to collect the cells. To the cells, sodium acetate buffer (50 mM sodium acetate, 10 mM EDTA, 1% SDS) was added, and the mixture was shaken at 65° C. for five minutes, followed by returning to room temperature, and obtaining the supernatant, of which the procedures were repeated two times. To the supernatant, ½ amount of a solution of phenol/chloroform was added, and the mixture was centrifuged to give a supernatant, which was added with an equal amount of chloroform, and the mixture was centrifuged to give a supernatant. To the supernatant, an equal amount of isopropanol containing 0.3 M sodium acetate was added, and the mixture was allowed to stand at room temperature for 30 minutes, after which the mixture was centrifuged to give a sediment of the whole RNAs. Seventy % ethanol was added to the sediment, and the mixture was again centrifuged to give a sediment, which was then dried and dissolved in water. mRNA was isolated from the whole RNAs as followings. In view of the fact that a poly A chain is attached to the 3′ terminus of mRNA, a polynucleotide having a poly T structure which was immobilized on the surface of latex beads was used to trap the mRNA, and then the mRNA was washed and eluted with spine column (Oligotex-dT30<Super>mRNA Purification Kit, Takara). Reverse transcription of the mRNA was conducted with a reverse transcriptase (Super Script II Reverse Transcriptase; catalogue No. 18064-014, GibcoBRL) using fluorescence-labeled nucleotides to give cDNAs that were introduced with Cy3-dUTP or Cy5-dUTP during the reverse transcription.
The labeled cDNAs were dissolved in TE buffer (10mM Tris-HCl/1 mM EDTA, pH8.0), and the solution was dropped on the DNA chip containing the whole genes of yeast (DNA Chip Research Inc. Japan) so that the cDNAs were hybridized on the DNA chip at 65° C. for over 12 hours. The fluoresces intensity of the DNA chip was read with a scanner, and the ratio relative to the fluorescence intensity resulting from the absence of chemical substance was estimated as the following, which is shown in Tables 1 to 9: […]

Compound: CN(C)C(=S)SSC(=S)N(C)C [(10), Tetramethylthiuram disulfide]
- The level of expressed mRNA in the presence of chemical substance/The level of expressed mRNA in the absence of chemical substance (yeast gene YNL037C): 3.2
- The level of expressed mRNA in the presence of chemical substance/The level of expressed mRNA in the absence of chemical substance (yeast gene YNL045W): 1.1
- The level of expressed mRNA in the presence of chemical substance/The level of expressed mRNA in the absence of chemical substance (yeast gene YNL104C): 2.0
- The level of expressed mRNA in the presence of chemical substance/The level of expressed mRNA in the absence of chemical substance (yeast gene YNL106C): 1.4
- The level of expressed mRNA in the presence of chemical substance/The level of expressed mRNA in the absence of chemical substance (yeast gene YNL169C): 1.1
- level of expressed mRNA in the presence/in the absence of chemical substance (yeast gene YNL192W): 1.8
- The level of expressed mRNA in the presence of chemical substance/The level of expressed mRNA in the absence of chemical substance (yeast gene YNL231C): 1.3
- The level of expressed mRNA in the presence of chemical substance/The level of expressed mRNA in the absence of chemical substance (yeast gene YNL322C): 0.8
- The level of expressed mRNA in the presence of chemical substance/The level of expressed mRNA in the absence of chemical substance (yeast gene YNL331C): 36.3
- The level of expressed mRNA in the presence of chemical substance/The level of expressed mRNA in the absence of chemical substance (yeast gene YNL332W): 2.1
- The level of expressed mRNA in the presence of chemical substance/The level of expressed mRNA in the absence of chemical substance (yeast gene YNR002C): 1.6
- The level of expressed mRNA in the presence of chemical substance/The level of expressed mRNA in the absence of chemical substance (yeast gene YNR019W): 1.9
- The level of expressed mRNA in the presence of chemical substance/The level of expressed mRNA in the absence of chemical substance (yeast gene YNR033W): 4.2
- The level of expressed mRNA in the presence of chemical substance/The level of expressed mRNA in the absence of chemical substance (yeast gene YNR059W): 1.4
- The level of expressed mRNA in the presence of chemical substance/The level of expressed mRNA in the absence of chemical substance (yeast gene YOL058W): 15.7
- level of expressed mRNA in the presence/in the absence of chemical substance (yeast gene YOL086C): 1.2
- level of expressed mRNA in the presence/in the absence of chemical substance (yeast gene YOL108C): 0.9
- level of expressed mRNA in the presence/in the absence of chemical substance (yeast gene YOL116W): 1.8
- The level of expressed mRNA in the presence of chemical substance/The level of expressed mRNA in the absence of chemical substance (yeast gene YOL126C): 2.4
- The level of expressed mRNA in the presence of chemical substance/The level of expressed mRNA in the absence of chemical substance (yeast gene YOL143C): 1.0
- The level of expressed mRNA in the presence of chemical substance/The level of expressed mRNA in the absence of chemical substance (yeast gene YOL153C): 3.2
- level of expressed mRNA in the presence/in the absence of chemical substance (yeast gene YOL156W): 2.1
- The level of expressed mRNA in the presence of chemical substance/The level of expressed mRNA in the absence of chemical substance (yeast gene YOL165C): 23.3
- level of expressed mRNA in the presence/in the absence of chemical substance (yeast gene YOR002W): 0.9
- level of expressed mRNA in the presence/in the absence of chemical substance (yeast gene YOR085W): 0.6
- The level of expressed mRNA in the presence of chemical substance/The level of expressed mRNA in the absence of chemical substance (yeast gene YOR099W): 0.7
- level of expressed mRNA in the presence/in the absence of chemical substance (yeast gene YOR103C): 0.9
- level of expressed mRNA in the presence/in the absence of chemical substance (yeast gene YOR108W): 1.1
- level of expressed mRNA in the presence/in the absence of chemical substance (yeast gene YOR128C): 0.4
- The level of expressed mRNA in the presence of chemical substance/The level of expressed mRNA in the absence of chemical substance (yeast gene YOR130C): 1.7
- The level of expressed mRNA in the presence of chemical substance/The level of expressed mRNA in the absence of chemical substance (yeast gene YOR136W): 3.4
- level of expressed mRNA in the presence/in the absence of chemical substance (yeast gene YOR142W): 1.5
- level of expressed mRNA in the presence/in the absence of chemical substance (yeast gene YOR176W): 0.5
- level of expressed mRNA in the presence/in the absence of chemical substance (yeast gene YOR178C): 1.7
- The level of expressed mRNA in the presence of chemical substance/The level of expressed mRNA in the absence of chemical substance (yeast gene YOR221C): 1.7
- The level of expressed mRNA in the presence of chemical substance/The level of expressed mRNA in the absence of chemical substance (yeast gene YOR226C): 5.9
- level of expressed mRNA in the presence/in the absence of chemical substance (yeast gene YOR251C): 0.8
- The level of expressed mRNA in the presence of chemical substance/The level of expressed mRNA in the absence of chemical substance (yeast gene YOR336W): 1.5
- The level of expressed mRNA in the presence of chemical substance/The level of expressed mRNA in the absence of chemical substance (yeast gene YOR347C): 0.9
- level of expressed mRNA in the presence/in the absence of chemical substance (yeast gene YOR348C): 0.4
- The level of expressed mRNA in the presence of chemical substance/The level of expressed mRNA in the absence of chemical substance (yeast gene YPL017C): 6.7
- level of expressed mRNA in the presence/in the absence of chemical substance (yeast gene YPL028W): 0.8
- level of expressed mRNA in the presence/in the absence of chemical substance (yeast gene YPL057C): 1.4
- level of expressed mRNA in the presence/in the absence of chemical substance (yeast gene YPL135W): 2.8
- level of expressed mRNA in the presence/in the absence of chemical substance (yeast gene YPL148C): 1.5
- The level of expressed mRNA in the presence of chemical substance/The level of expressed mRNA in the absence of chemical substance (yeast gene YPR026W): 3.1
- level of expressed mRNA in the presence/in the absence of chemical substance (yeast gene YPR113W): 0.8
- level of expressed mRNA in the presence/in the absence of chemical substance (yeast gene YPR165W): 0.7
- The level of expressed mRNA in the presence of chemical substance/The level of expressed mRNA in the absence of chemical substance (yeast gene YPR167C): 9.0
- level of expressed mRNA in the presence/in the absence of chemical substance (yeast gene YPR183W): 0.6
